Measurements from ChEMBL document CHEMBL1909046, “DrugMatrix in vitro pharmacology data”.

How the values were obtained:
Neutrophil elastase = biological target: T1, Neutrophil elastase (Homo sapiens, UniProt P08246); type: tissue-based;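 note: inhibition of neutrophil elastase enzyme activity, measured with a p-nitroanilide-linked peptide substrate; in other assays of this panel Not Active means under 50% inhibition at 10 µM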
T1 sequence (P08246 whole entry): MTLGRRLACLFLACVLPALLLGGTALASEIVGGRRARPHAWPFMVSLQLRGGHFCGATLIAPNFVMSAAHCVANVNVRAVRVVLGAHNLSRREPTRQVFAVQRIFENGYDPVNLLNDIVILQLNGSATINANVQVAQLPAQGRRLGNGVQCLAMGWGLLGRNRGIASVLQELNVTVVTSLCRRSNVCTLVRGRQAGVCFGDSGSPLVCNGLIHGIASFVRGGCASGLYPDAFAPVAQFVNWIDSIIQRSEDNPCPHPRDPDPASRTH

[1] = biological target: Tyrosine-protein kinase Lck (Homo sapiens, UniProt P06239); experiment: DRUGMATRIX: Protein Tyrosine Kinase, LCK enzyme inhibition (substrate: Poly(Glu:Tyr)); type: cell-based, Insect cells; conditions: Not Active = under 50% inhibition at 10 µM
Chain of Tyrosine-protein kinase Lck (P06239 whole entry): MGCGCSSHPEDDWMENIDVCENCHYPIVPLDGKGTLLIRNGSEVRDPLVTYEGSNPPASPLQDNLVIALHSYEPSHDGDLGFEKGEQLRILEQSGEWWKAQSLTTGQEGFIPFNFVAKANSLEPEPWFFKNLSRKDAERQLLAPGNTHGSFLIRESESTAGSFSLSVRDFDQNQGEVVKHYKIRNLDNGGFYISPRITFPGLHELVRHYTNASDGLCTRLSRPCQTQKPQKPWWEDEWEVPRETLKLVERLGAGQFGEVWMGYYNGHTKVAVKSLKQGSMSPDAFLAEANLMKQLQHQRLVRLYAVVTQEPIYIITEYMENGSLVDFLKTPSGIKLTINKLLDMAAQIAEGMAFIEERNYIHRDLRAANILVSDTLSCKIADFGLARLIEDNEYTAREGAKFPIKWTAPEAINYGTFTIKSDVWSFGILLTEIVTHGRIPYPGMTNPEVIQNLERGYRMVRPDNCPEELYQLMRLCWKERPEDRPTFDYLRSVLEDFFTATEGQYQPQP

Interstitial collagenase = biological target: T2, Interstitial collagenase (Homo sapiens, UniProt P03956); experiment: biochemical; type: tissue-based, Rheumatoid synovial fibroblasts;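 note: MMP-1 enzyme inhibition assay using a peptide substrate; in other assays of this panel Not Active means under 50% inhibition at 10 µM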
T2 sequence (P03956 whole entry): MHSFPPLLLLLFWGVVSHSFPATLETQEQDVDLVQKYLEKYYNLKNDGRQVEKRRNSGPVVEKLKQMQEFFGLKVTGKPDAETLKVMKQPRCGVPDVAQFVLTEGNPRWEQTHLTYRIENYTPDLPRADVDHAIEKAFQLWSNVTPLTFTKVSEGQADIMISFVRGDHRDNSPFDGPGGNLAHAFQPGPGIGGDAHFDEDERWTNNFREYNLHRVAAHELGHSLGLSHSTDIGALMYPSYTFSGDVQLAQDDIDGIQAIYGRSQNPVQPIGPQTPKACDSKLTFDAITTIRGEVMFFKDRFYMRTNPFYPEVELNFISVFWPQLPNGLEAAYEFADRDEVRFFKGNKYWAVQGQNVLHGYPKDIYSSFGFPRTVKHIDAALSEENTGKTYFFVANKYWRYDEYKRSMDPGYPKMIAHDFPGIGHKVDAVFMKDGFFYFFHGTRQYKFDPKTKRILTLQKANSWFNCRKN

[2] = biological target: T3, C-C chemokine receptor type 4 (Homo sapiens, UniProt P51679); type: cell membranes, Membrane; conditions: chem-1; note: in other assays of this panel Not Active means under 50% inhibition at 10 µM
T3 sequence (P51679 whole entry): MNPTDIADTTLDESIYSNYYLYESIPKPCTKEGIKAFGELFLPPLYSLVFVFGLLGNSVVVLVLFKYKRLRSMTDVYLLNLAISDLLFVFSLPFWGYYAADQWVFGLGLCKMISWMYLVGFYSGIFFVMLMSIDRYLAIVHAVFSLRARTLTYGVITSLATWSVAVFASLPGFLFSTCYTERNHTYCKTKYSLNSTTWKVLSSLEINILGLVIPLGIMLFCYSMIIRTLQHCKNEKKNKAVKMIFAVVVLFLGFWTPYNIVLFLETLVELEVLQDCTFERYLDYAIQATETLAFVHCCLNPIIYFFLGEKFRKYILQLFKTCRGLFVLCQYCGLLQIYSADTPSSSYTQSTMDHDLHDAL

D(3) dopamine receptor = D(3) dopamine receptor (Homo sapiens, UniProt P35462); experiment: DRUGMATRIX: Dopamine D3 radioligand binding (ligand: [3H] Spiperone); type: cell membranes, CHO, Membrane
Chain of D(3) dopamine receptor (P35462 whole entry): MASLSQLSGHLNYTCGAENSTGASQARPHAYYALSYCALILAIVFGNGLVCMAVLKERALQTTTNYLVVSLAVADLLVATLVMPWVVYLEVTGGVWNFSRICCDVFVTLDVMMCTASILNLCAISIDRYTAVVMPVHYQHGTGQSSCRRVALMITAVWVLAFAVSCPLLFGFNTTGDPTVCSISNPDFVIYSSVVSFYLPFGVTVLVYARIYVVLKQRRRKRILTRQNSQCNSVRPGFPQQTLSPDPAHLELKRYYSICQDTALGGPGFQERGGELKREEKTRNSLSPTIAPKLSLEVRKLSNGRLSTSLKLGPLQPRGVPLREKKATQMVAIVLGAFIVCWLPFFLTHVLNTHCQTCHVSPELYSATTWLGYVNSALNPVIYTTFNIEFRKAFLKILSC

[3] = biological target: Platelet-activating factor receptor (Homo sapiens, UniProt P25105); type: tissue-based; note: in other assays of this panel Not Active means under 50% inhibition at 10 µM
Chain of Platelet-activating factor receptor (P25105 whole entry): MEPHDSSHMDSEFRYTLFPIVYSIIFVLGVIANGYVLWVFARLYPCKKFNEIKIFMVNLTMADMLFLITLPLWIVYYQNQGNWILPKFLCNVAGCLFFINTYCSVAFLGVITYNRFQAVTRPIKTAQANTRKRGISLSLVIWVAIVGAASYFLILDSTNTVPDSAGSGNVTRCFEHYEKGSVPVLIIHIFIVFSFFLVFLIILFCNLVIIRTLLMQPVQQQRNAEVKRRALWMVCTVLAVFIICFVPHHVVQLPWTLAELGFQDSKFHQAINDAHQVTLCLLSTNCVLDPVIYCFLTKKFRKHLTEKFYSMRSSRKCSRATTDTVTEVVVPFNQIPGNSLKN

Carbonic anhydrase 2 = Carbonic anhydrase 2 (Homo sapiens, UniProt P00918); experiment: DRUGMATRIX: Carbonic Anhydrase II enzyme inhibition (substrate: 4-Nitrophenyl acetate (4-NPA)); type: tissue-based, Erythrocyte; conditions: erythrocyte; Not Active = under 50% inhibition at 10 µM

| Compound | IC50 (Neutrophil elastase) | IC50 ([1]; insect cells) | IC50 (Interstitial collagenase) | IC50 [2] | IC50 (D(3) dopamine receptor; cho) | IC50 [3] | IC50 (Carbonic anhydrase 2) | IC50 (D(3) dopamine receptor; read-out: IC50) [nM] | Ki (D(3) dopamine receptor; read-out: Ki) [nM] | IC50 ([1]; read-out: IC50) [µM] | Ki [2] | Ki (Neutrophil elastase) | IC50 ([1]; insect cells, read-out: IC50) [µM] | Ki (Interstitial collagenase) | IC50 (D(3) dopamine receptor; cho, read-out: IC50) [nM] | Ki (D(3) dopamine receptor; cho, read-out: Ki) [nM] | Ki [3] | Ki (Carbonic anhydrase 2) | Ki ([1]; insect cells) | Ki (D(3) dopamine receptor; cho) |
| --- | --- | --- | --- | --- | --- | --- | --- | --- | --- | --- | --- | --- | --- | --- | --- | --- | --- | --- | --- | --- |
| CCCCC(=O)N(Cc1ccc(-c2ccccc2-c2nnn[nH]2)cc1)[C@H](C(=O)O)C(C)C | Not Active | Not Active | Not Active | Not Active | Not Active | Not Active | Not Active | – | – | – | – | – | – | – | – | – | – | – | – | – |
| O=C(O)COc1ccc(C(=O)c2cccs2)c(Cl)c1Cl | Not Active | Not Active | Not Active | Not Active | Not Active | Not Active | Not Active | – | – | – | – | – | – | – | – | – | – | – | – | – |
| CN1[C@@H]2CC[C@H]1C[C@@H](OC(c1ccccc1)c1ccccc1)C2 [BENZTROPINE] | Not Active | Not Active | Not Active | Not Active | – | Not Active | Not Active | 654 | 222 | – | – | – | – | – | – | – | – | – | – | – |
| C[C@@](Cc1ccc(O)c(O)c1)(NN)C(=O)O.O [CARBIDOPA] | Not Active | – | Not Active | Not Active | Not Active | Not Active | Not Active | – | – | 6.8 | – | – | – | – | – | – | – | – | – | – |
| CN1CCN(C2=Nc3cc(Cl)ccc3Nc3ccccc32)CC1 [CLOZAPINE] | Not Active | Not Active | Not Active | Not Active | – | Not Active | Not Active | – | – | – | – | – | – | – | – | – | – | – | – | – |
| CC(C)NC[C@@H](O)COc1cccc2ccccc12 [DEXPROPRANOLOL] | Not Active | Not Active | Not Active | Not Active | Not Active | Not Active | Not Active | – | – | – | – | – | – | – | – | – | – | – | – | – |
| CC(C)NC[C@H](O)COc1cccc2ccccc12 [LEVOPROPRANOLOL] | Not Active | Not Active | Not Active | Not Active | Not Active | Not Active | Not Active | – | – | – | – | – | – | – | – | – | – | – | – | – |
| O=C(O)CCCCC1CCSS1 (stereo not drawn) [LIPOIC ACID, ALPHA] | Not Active | Not Active | Not Active | Not Active | Not Active | Not Active | Not Active | – | – | – | – | – | – | – | – | – | – | – | – | – |
| CN(C)C(=O)C(CCN1CCC(O)(c2ccc(Cl)cc2)CC1)(c1ccccc1)c1ccccc1 [LOPERAMIDE] | Not Active | Not Active | Not Active | Not Active | – | Not Active | Not Active | 1340 | 454 | – | – | – | – | – | – | – | – | – | – | – |
| Clc1ccc(COC(Cn2ccnc2)c2ccc(Cl)cc2Cl)c(Cl)c1 (stereo not given) [MICONAZOLE] | Not Active | Not Active | Not Active | Not Active | – | Not Active | Not Active | 3200 | 1090 | – | – | – | – | – | – | – | – | – | – | – |
| Oc1ccc2c3c1O[C@H]1[C@@H](O)CC[C@@]4(O)[C@@H](C2)N(CC2CCC2)CC[C@]314 [NALBUPHINE] | Not Active | Not Active | Not Active | Not Active | Not Active | Not Active | Not Active | – | – | – | – | – | – | – | – | – | – | – | – | – |
| C[C@]12C=CC(=O)C=C1CC[C@@H]1[C@@H]2C(=O)C[C@@]2(C)[C@H]1CC[C@]2(O)C(=O)CO [PREDNISONE] | Not Active | Not Active | Not Active | Not Active | Not Active | Not Active | Not Active | – | – | – | – | – | – | – | – | – | – | – | – | – |
| OCCOCCN1CCN(C2=Nc3ccccc3Sc3ccccc32)CC1 [QUETIAPINE] | Not Active | Not Active | Not Active | Not Active | – | Not Active | Not Active | – | – | – | – | – | – | – | – | – | – | – | – | – |
| COC(=O)[C@H]1[C@H]2C[C@@H]3c4[nH]c5cc(OC)ccc5c4CCN3C[C@H]2C[C@@H](OC(=O)c2cc(OC)c(OC)c(OC)c2)[C@@H]1OC [RESERPINE] | Not Active | Not Active | Not Active | Not Active | Not Active | Not Active | Not Active | – | – | – | – | – | – | – | – | – | – | – | – | – |
| O=C(O)c1ccccc1O [SALICYLIC ACID] | Not Active | Not Active | Not Active | Not Active | Not Active | Not Active | Not Active | – | – | – | – | – | – | – | – | – | – | – | – | – |
| C[S+]([O-])c1ccc(-c2nc(-c3ccncc3)c(-c3ccc(F)cc3)[nH]2)cc1 (stereo not given) [SB-203580] | Not Active | – | Not Active | Not Active | Not Active | Not Active | Not Active | – | – | – | – | – | – | – | – | – | – | – | – | – |
| CC1CCC(NC(=O)N(CCCl)N=O)CC1 (stereo not given) [SEMUSTINE] | Not Active | Not Active | Not Active | Not Active | Not Active | Not Active | Not Active | – | – | – | – | – | – | – | – | – | – | – | – | – |
| O=C1C[C@@H]2OCC=C3CN4CC[C@]56c7ccccc7N1[C@H]5[C@H]2[C@H]3C[C@H]46 [STRYCHNINE] | Not Active | Not Active | Not Active | Not Active | Not Active | Not Active | Not Active | – | – | – | – | – | – | – | – | – | – | – | – | – |
| C[N+](C)(C)CCOC(=O)CCC(=O)OCC[N+](C)(C)C.[Cl-].[Cl-] [SUCCINYLCHOLINE CHLORIDE] | Not Active | Not Active | Not Active | Not Active | Not Active | Not Active | Not Active | – | – | – | – | – | – | – | – | – | – | – | – | – |
| Nc1ccc(S(=O)(=O)NC(=O)c2ccccc2)cc1 [SULFABENZAMIDE] | Not Active | Not Active | Not Active | Not Active | Not Active | Not Active | Not Active | – | – | – | – | – | – | – | – | – | – | – | – | – |
| CCCCCCCCNC(C)C(O)c1ccc(SC(C)C)cc1 (stereo not given) [SULOCTIDIL] | Not Active | Not Active | Not Active | Not Active | – | Not Active | Not Active | 2100 | 715 | – | – | – | – | – | – | – | – | – | – | – |
| O=c1[nH]c(=O)n(C2CCCO2)cc1F (stereo not given) [TEGAFUR] | Not Active | Not Active | Not Active | Not Active | Not Active | Not Active | Not Active | – | – | – | – | – | – | – | – | – | – | – | – | – |
| CC(=N)S [THIOACETAMIDE] | Not Active | Not Active | Not Active | Not Active | Not Active | Not Active | Not Active | – | – | – | – | – | – | – | – | – | – | – | – | – |
| Cc1ccc(C(=O)c2ccc(CC(=O)O)n2C)cc1 [TOLMETIN] | Not Active | Not Active | Not Active | Not Active | Not Active | Not Active | Not Active | – | – | – | – | – | – | – | – | – | – | – | – | – |
| CC(=O)OCC(COC(C)=O)OC(C)=O [TRIACETIN] | Not Active | Not Active | Not Active | – | Not Active | Not Active | Not Active | – | – | – | Not Active | – | – | – | – | – | – | – | – | – |
| CN1CCN(CCCN2c3ccccc3Sc3ccc(C(F)(F)F)cc32)CC1 [TRIFLUOPERAZINE] | Not Active | Not Active | Not Active | – | Not Active | Not Active | Not Active | – | – | – | Not Active | – | – | – | – | – | – | – | – | – |
| TRANSPLATIN | Not Active | – | Not Active | Not Active | – | Not Active | Not Active | – | – | – | Not Active | Not Active | 2.72 | Not Active | 3320 | 1130 | Not Active | Not Active | – | – |
| ZIRCONIUM(IV) CHLORIDE | Not Active | Not Active | Not Active | Not Active | Not Active | Not Active | Not Active | – | – | – | Not Active | Not Active | – | Not Active | – | – | Not Active | Not Active | Not Active | Not Active |
